Measurements: article PMC11989212, “Experimental Conditions to Retrieve Intrinsic Cooperativity α Directly from Single Binding Assay Data Exemplified by the Ternary Complex Formation of FKBP12, MAPRE1 and Macrocyclic Molecular Glues” (International Journal of Molecular Sciences, 2025)
“Also recorded” adds a separate entry of the source.

What was measured:
FKBP12 [1] = molecular target: T1, FKBP12 (Homo sapiens, UniProt P62942); design: method as in PMID 40059881; settings: TR-FRET competitive binding assay from previous work; read-out: EC50_FKBP12; cited from earlier work
[2] = molecular target: FKBP12 in the presence of MAPRE1 (Homo sapiens, UniProt P62942+Q15691); assay: Spectral shift target engagement assay, binding to FKBP12 in the presence of 10 μM MAPRE1 (ternary); settings: 40 nM FKBP12-NTA, 10 μM MAPRE1; read-out: EC50 of the %Cbound, ternary curve (measured)
From the text: (§1) Our method of choice is the spectral shift method, which monitors binding events on the target isothermally and in equilibrium via an environment-sensitive near-infrared fluorophore. In the case of target engagement, either the proximity of the ligand towards the dye or structural changes occurring in the target as a result of binding lead to a change in the chemical environment of the fluorophore. Those changes affect the physiochemical properties of the reporter fluorophore and translate into either blue or red shifts (or peak broadening) of emission peaks upon ligand binding, which can be sensitively monitored by simultaneously recording the fluorescence at two wavelengths (i.e., at 650 nm and 670 nm). Calculating the ratio between the two fluorescence channels then allows to monitor subtle emission shifts that occur as a result of target engagement. Affinity measurements can then be performed by recording the spectral shift as a function of ligand concentration.
(§2) Binding studies through FKBP12: To monitor the binding of R,--SLF-11 by the stronger binding FKBP12 in the absence and in the presence of 10 μM MAPRE1 via %Cbound, binary and %Cbound, ternary, respectively, the concentration of reversibly NTA-labeled FKBP12 was limited to [Ctot] = 40 nM. […] In contrast to the experimental setup in the previous two binding experiments with monitoring through the weaker binding protein MAPRE1, where the applied protein concentrations were optimally chosen, this is not the case for the binding experiment through the stronger binder FKBP12. First of all, the applied excess of T with [Ttot] = 10 μM is roughly 20000-fold off of the proposed 100 times KT,1 threshold, which would correspond to 180 mM. Only under such excess conditions of T can the equilibrium of forming TL under the constraint that all ligand L is bound to T be reached to ensure that [Ltot] approaches the “ligand” concentration [TL]. […] If KC,2 is sufficiently high, the 20 nM deviation to correct for the protein concentration could be neglected. However, the resulting calculated value for KC,2 is 0.023 nM, accounting for the cooperativity α = 10,405 and KC,1 = 234 nM as derived by the MAPRE1 experiment. This value is far below the applied protein concentration of [Ctot] = 40 nM and makes it infeasible to estimate KC,2 from the EC50 of the %Cbound, ternary curve. Consequently, the EC50 shifts, meaning the apparent cooperativity, from monitoring the binding by the stronger binding protein C are diverging from the underlying intrinsic cooperativity α. […] The deviation of calculated (254 nM/24.2 nM = 10.5) and measured apparent cooperativity (254 nM/66 nM = 3.8) can be explained by a negative cooperativity induced by the His6-NTA tag of FKBP12. Studies to lower [Ctot] and identify a better position for the spectral shift tag on FKBP12 are ongoing (Figure 6a).
(§3) His-tagged FKBP12 was labeled using the His-Tag Labeling Kit RED-tris-NTA 2nd Generation (MO-L018; NanoTemper Technologies GmbH). The affinity between NTA dye and the His-tag of FKBP12 was determined as 7 nM. MAPRE1 was labeled using the Protein Labeling Kit RED-NHS 2nd Generation (MO-L011; NanoTemper Technologies GmbH). In brief, 10 µM of MAPRE1 was incubated with a 3-fold molar excess of fluorophore for 30 min. The unreacted fluorophore was removed by performing a size exclusion purification (B-column). Collecting the protein fraction yielded 1.8 µM labeled MAPRE1, with a degree of labeling of 0.8, as determined on a Nanodrop.
(§4) A 1:2 dilution series of all compounds (starting from the 10 mM stock concentration) was prepared in pure DMSO. Each concentration was diluted 25-fold with assay buffer (20 mM HEPES, pH 7.4, 150 mM NaCl, 1 mM DTT (all from Carl Roth, Karlsruhe, Germany), and 0.01% Pluronic F-127 (Sigma Aldrich, Taufkirchen, Germany)). Next, 10 µL from each of the prepared ligand dilutions was transferred into an empty well on a Dianthus Microwell Plate (DI-P001A). […]

[3] = tested on: FKBP12:R,S-SLF-X:MAPRE1 ternary complex; design: method as in PMID 40059881; settings: TR-FRET proximity assay, reported earlier; cited from earlier work
MAPRE1 = molecular target: T2, MAPRE1 (Homo sapiens, UniProt Q15691); assay: Spectral shift target engagement assay, binary binding to MAPRE1; settings: up to [Ltot] = 200 μM
T2 construct: His-tag (N)
T2 sequence (Q15691 1-268): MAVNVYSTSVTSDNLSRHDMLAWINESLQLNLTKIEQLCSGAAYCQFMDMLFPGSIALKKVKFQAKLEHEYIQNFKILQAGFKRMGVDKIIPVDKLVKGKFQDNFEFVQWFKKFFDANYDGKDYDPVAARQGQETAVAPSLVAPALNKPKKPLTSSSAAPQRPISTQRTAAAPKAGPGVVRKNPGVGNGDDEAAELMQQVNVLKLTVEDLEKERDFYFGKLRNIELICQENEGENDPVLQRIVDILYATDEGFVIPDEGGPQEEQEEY

FKBP12 [4] = molecular target: T1, FKBP12; assay: Spectral shift target engagement assay, binary binding to FKBP12; settings: 40 nM FKBP12-NTA; KC,1 = EC50 − [Ctot]/2
From the text: as §1, §2, §3, §4

[5] = molecular target: T3, MAPRE1 in the presence of FKBP12 (Homo sapiens, UniProt P62942+Q15691); assay: Spectral shift target engagement assay, binding to MAPRE1 in the presence of 10 μM FKBP12 (ternary)
T3 construct: His-tag (N)
From the text: as §1
Binding study through MAPRE1: MAPRE1 was labeled via lysines using an NHS-conjugated dye. The final concentration of MAPRE1NHS (referring to [Ttot]) was 5 nM. Compounds could be titrated up to a concentration of 200 μM (referring to [Ltot]). […] However more accuracy could only be achieved at higher ligand concentrations—ideally at full target saturation. However, this was experimentally infeasible due to assay conditions (i.e., the requirement of maintaining a certain DMSO concentration or avoiding solubility issues of the ligand). Although the determined KT,1 values of binding to MAPRE1 are only approximations, their relative ranking reflects the underlying differences in the affinity of the ligands L to MAPRE1. Performing these experiments in duplicates confirmed the high signal-to-noise ratio, i.e., there was no significant deviation between the two curves, indicating a high accuracy of the interpolated EC50 values. Due to the low [Ttot] = 5 nM, this value coincides with KT,1 (1.8 mM − 0.005 mM/2 ≈ 1.8 mM). […] Consequently, KT,2 corresponds to 173 nM and not 177.5 nM.
as §3
A 1:2 dilution series of all compounds (starting from the 10 mM stock concentration) was prepared in pure DMSO. Each concentration was diluted 25-fold with assay buffer (20 mM HEPES, pH 7.4, 150 mM NaCl, 1 mM DTT (all from Carl Roth, Karlsruhe, Germany), and 0.01% Pluronic F-127 (Sigma Aldrich, Taufkirchen, Germany)). Next, 10 µL from each of the prepared ligand dilutions was transferred into an empty well on a Dianthus Microwell Plate (DI-P001A). Another 10 µL of 2-fold concentrated labeled protein (either in the absence or the presence of 20 µM counter protein, both in assay buffer then yielded the final assay concentrations. Interaction measurements were prepared in duplicates for each condition. For binary interactions of compounds with MAPRE1, a final target concentration of 5 nM and a highest ligand concentration of 50 µM was prepared. For ternary interactions of compounds and MAPRE1 in the presence of 10 µM unlabeled FKBP12, the highest ligand concentration was increased to 200 µM, the highest concentration achievable while maintaining a constant 2% DMSO concentration. For all interactions measured via FKBP12, the target was prepared at a final concentration of 40 nM, supplemented with 5 nM NTA fluorophore. […]

T3 sequence (P62942 whole entry, one chain of several): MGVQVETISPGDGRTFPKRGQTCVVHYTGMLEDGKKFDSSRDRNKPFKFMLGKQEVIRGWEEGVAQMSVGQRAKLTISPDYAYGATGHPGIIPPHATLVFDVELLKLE
T1 sequence (P62942 whole entry, species assumed): as the sequence (P62942 whole entry, one chain of several) above
FKBP12 in the presence of MAPRE1, sequence (P62942 whole entry, one chain of several): as above

SMILES: COc1ccc(CCC2OC(=O)C3CCCCN3C(=O)C(=O)C(C)(C)COC(=O)C(C)NC(=O)C3CC(O)CN3C(=O)COc3cccc2c3)cc1OC (stereo not shown) [R,S-SLF-12]
- EC50 (FKBP12 [1]): 0.043 µM
- EC50 [2]: 0.03 µM
- TR-FRET Recruitment Assay (%Amax) [3]: 0%
- binary binding to MAPRE1 (%Tbound, binary) (MAPRE1): no binding; also recorded: Neither binary nor ternary binding
- Kd (FKBP12 [4]): 0.013 µM
- ternary binding to MAPRE1 ([5]; 10 μM FKBP12): Neither binary nor ternary binding
- Ratio [Ctot]/KC,1 ([5]; [Ctot] = 10 μM FKBP12): 769
